What was measured:
Stellaria media [1] = assay: Post-emergence herbicidal action; format: in vivo; details: Stellaria media, 504 h, 1280 g/ha, about 3 weeks after treatment, read-out: Stellaria media, herbicidal activity rated visually
Experimental: (§1) Seeds of monocotyledonous and dicotyledonous weeds and crop plants were placed in sandy loam in plastic or wood-fiber pots, covered with soil and cultivated in a greenhouse under controlled growth conditions. 2 to 3 weeks after sowing, the test plants were treated at the one-leaf stage. The compounds of the invention, formulated in the form of wettable powders (WP) or as emulsion concentrates (EC), were then sprayed onto the green parts of the plants as aqueous suspension or emulsion with addition of 0.5% additive at a water application rate of 600 l/ha (converted). After the test plants had been kept in the greenhouse under optimum growth conditions for about 3 weeks, the activity of the preparations was rated visually in comparison to untreated controls. For example, 100% activity=the plants have died, 0% activity=like control plants. Tables A1 to A12 below show the effects of selected compounds of the general formula (I) according to Tables I.1 to I.44 on various harmful plants and an application rate corresponding to 1280 g/ha or 320 g/ha, which were obtained by the experimental procedure mentioned above.

Viola tricolor [2] = assay: Post-emergence herbicidal action; format: in vivo; details: 504 h, 1280 g/ha, about 3 weeks after treatment, read-out: Viola tricolor, herbicidal activity rated visually
Experimental: as §1

Hordeum murinum = assay: Post-emergence herbicidal action; format: in vivo; details: 1280 g/ha, about 3 weeks after treatment
Experimental: as §1

Abutilon theophrasti [3] = assay: Post-emergence herbicidal action; format: in vivo; details: Abutilon theophrasti, 504 h, 1280 g/ha, about 3 weeks after treatment, read-out: Abutilon theophrasti, herbicidal activity rated visually
Experimental: as §1

Setaria viridis [4] = assay: Post-emergence herbicidal action; format: in vivo; details: Setaria viridis, 504 h, 1280 g/ha, about 3 weeks after treatment, read-out: Setaria viridis, herbicidal activity rated visually
Experimental: as §1

Pharbitis purpurea [5] = assay: Post-emergence herbicidal action; format: in vivo; details: 1280 g/ha, about 3 weeks after treatment
Experimental: as §1

photosystem II (PS II) = molecular target: T1, photosystem II (PS II) (Spinacia oleracea, UniProt P69560); assay: Measurement of the PS II activity in thylakoid membranes (DCPIP reduction); format: biochemical; details: 100 μM test compound, spinach thylakoid membranes, DCPIP 120 μM, 10 min at 22° C. with exposure to light; read-out: Effect (inhibition of PS II activity)
T1 construct: the chloroplasts were osmotically ruptured and the thylakoid membranes were then obtained by centrifugation; from tissue; host or cells: fresh spinach leaves; thylakoid membranes isolated from chloroplasts
Experimental: Cooled fresh spinach leaves were comminuted and homogenized in 50 mM phosphate buffer, pH 6.8. 10 mM KCl, 0.34 M sucrose (sucrose buffer) (blender, 1 g of plant material/ml). The homogenate was subsequently filtered through 4 layers of Miracloth and the chloroplasts were isolated by centrifugation, i.e. 10 min of centrifugation at 4400×g (4° C.). The sediment was suspended in 25 ml of sucrose buffer and re-centrifuged for 10 min at 4400×g (4° C.). The sediment was then suspended in 40 ml of 50 mM phosphate buffer, pH 6.8, 10 mM KCl, without sucrose. In this step, the chloroplasts were osmotically ruptured and the thylakoid membranes were then obtained by centrifugation (10 min, 4400×g, 4° C.). The membrane sediment was finally suspended in 20 ml of 50 mM phosphate buffer, pH 6.8, 10 mM KCl. Following protein determination and activity determination, the membrane suspension was divided into aliquots and frozen in liquid nitrogen. The aliquots were stored at −80° C. Under these conditions, the photosystem II preparation was storage stable for at least three months. The activity determination of photosystem II (PS II) was then carried out using the following test principle:
The electron transfer from PS II to an artificial electron acceptor, 2,6-dichlorophenolindophenol (DCPIP), was measured with exposure to light. The concentration of the blue oxidized form of DCPIP was determined spectrophotometrically at wavelength λ=595 nm. […] The activity determination was carried out in microtiter plates (96 cavities) in a reaction volume of 200 μl. Here, 155 μl of dilute membrane suspension were initially charged in 50 mM of phosphate buffer, pH 6.8, 10 mM KCl. Depending on the activity of the PS II preparation, the dilution was adjusted such that the measurement of the decrease in absorption (λ=595 nm) was linear for at least 10 min. In each case 5 μl solution of the test compounds of a concentration of 100 μM in DMSO were added to the enzyme suspension; controls contained 5 μl DMSO; the final concentration of DMSO in the reaction batch was thus 2.5% (v/v); this concentration had no adverse effect on the enzymatic activity. On each microtiter plate, a known PS II inhibitor, for example metribuzin, was used as standard, which allowed the quality of the PS II test to be assessed. The reaction was started by addition of 40 μl DCPIP solution (600 μM in distilled water); the final concentration of DCPIP was 120 μM. Measurement of absorption was carried out over a period of 10 min at 22° C. and with exposure to light. Using metribuzin as comparative substance, the results for the efficacy of the compounds of the general formula (I) at 100 μM are stated in the table below using the following classification: ++++ (inhibition≥90%), +++ ([…]≥70%), ++ (70%>inhibition≥50%), + (50%>inhibition≥30%).

Stellaria media [6] = assay: Pre-emergence herbicidal action; format: in vivo; details: Stellaria media, 504 h, 1280 g/ha, after about 3 weeks, read-out: Stellaria media, herbicidal effect scored visually
From the text: (§2) Seeds of monocotyledonous and dicotyledonous weed plants and crop plants were placed in plastic or organic planting pots and covered with soil. The compounds of the invention, formulated in the form of wettable powders (WP) or as emulsion concentrates (EC), were then applied onto the surface of the covering soil as aqueous suspension or emulsion with addition of 0.5% additive at a water application rate of 600 l/ha (converted). After the treatment, the pots were placed in a greenhouse and kept under good growth conditions for the test plants. After about 3 weeks, the effect of the preparations was scored visually in comparison with untreated controls as percentages. For example, 100% activity=the plants have died, 0% activity=like control plants. Tables B1 to B15 below show the effects of selected compounds of the general formula (I) according to Tables I.1 to I.44 on various harmful plants and an application rate corresponding to 1280 g/ha or 320 g/ha, which were obtained by the experimental procedure mentioned above.

Viola tricolor [7] = assay: Pre-emergence herbicidal action; format: in vivo; details: Viola tricolor, 504 h, 1280 g/ha, after about 3 weeks, read-out: Viola tricolor, herbicidal effect scored visually
From the text: as §2

Abutilon theophrasti [8] = assay: Pre-emergence herbicidal action; format: in vivo; details: 1280 g/ha, after about 3 weeks
From the text: as §2

Setaria viridis [9] = assay: Pre-emergence herbicidal action; format: in vivo; details: Setaria viridis, 504 h, 1280 g/ha, after about 3 weeks, read-out: Setaria viridis, herbicidal effect scored visually
From the text: as §2

Matricaria inodora [10] = assay: Pre-emergence herbicidal action; format: in vivo; details: Tripleurospermum inodorum, 504 h, after about 3 weeks, read-out: Matricaria inodora, herbicidal effect scored visually
From the text: as §2

Alopecurus myosuroides [11] = assay: Pre-emergence herbicidal action; format: in vivo; details: 1280 g/ha, after about 3 weeks
From the text: as §2

Polygonum convolvulus [12] = assay: Pre-emergence herbicidal action; format: in vivo; details: 1280 g/ha, after about 3 weeks
From the text: as §2

Amaranthus retroflexus [13] = assay: Post-emergence herbicidal action; format: in vivo; details: 1280 g/ha, about 3 weeks after treatment
Experimental: as §1

Matricaria inodora [14] = assay: Post-emergence herbicidal action; format: in vivo; details: 1280 g/ha, about 3 weeks after treatment
Experimental: as §1

Alopecurus myosuroides [15] = assay: Post-emergence herbicidal action; format: in vivo; details: 1280 g/ha, about 3 weeks after treatment
Experimental: as §1

Veronica persica [16] = assay: Post-emergence herbicidal action; format: in vivo; details: about 3 weeks after treatment
Experimental: as §1

Lolium rigidum = assay: Pre-emergence herbicidal action; format: in vivo; details: 1280 g/ha, after about 3 weeks
From the text: as §2

Pharbitis purpurea [17] = assay: Pre-emergence herbicidal action; format: in vivo; details: 1280 g/ha, after about 3 weeks
From the text: as §2

Polygonum convolvulus [18] = assay: Post-emergence herbicidal action; format: in vivo; details: 1280 g/ha, about 3 weeks after treatment
Experimental: as §1

Amaranthus retroflexus [19] = assay: Pre-emergence herbicidal action; format: in vivo; details: after about 3 weeks
From the text: as §2

Veronica persica [20] = assay: Pre-emergence herbicidal action; format: in vivo; details: 1280 g/ha, after about 3 weeks
From the text: as §2

Echinochloa crus-galli [21] = assay: Post-emergence herbicidal action; format: in vivo; details: 1280 g/ha, about 3 weeks after treatment
Experimental: as §1

Poa annua = assay: Pre-emergence herbicidal action; format: in vivo; details: 1280 g/ha, after about 3 weeks
From the text: as §2

Echinochloa crus-galli [22] = assay: Pre-emergence herbicidal action; format: in vivo; details: 1280 g/ha, after about 3 weeks
From the text: as §2

SMILES | pest or weed control at 1280 g/ha (Stellaria media [1]) | pest or weed control at 1280 g/ha (Viola tricolor [2]) | pest or weed control at 1280 g/ha (Abutilon theophrasti [3]) | pest or weed control at 1280 g/ha (Setaria viridis [4]) | Pharbitis purpurea, herbicidal activity rated visually (Pharbitis purpurea [5]) | inhibition at 100 µM (stock) (photosystem II (PS II)) | pest or weed control at 1280 g/ha (Stellaria media [6]) | pest or weed control at 1280 g/ha (Viola tricolor [7]) | Abutilon theophrasti, herbicidal effect scored visually (Abutilon theophrasti [8]) | pest or weed control at 1280 g/ha (Setaria viridis [9]) | pest or weed control at 1280 g/ha (Matricaria inodora [10]) | Alopecurus myosuroides, herbicidal effect scored visually (Alopecurus myosuroides [11]) | Polygonum convolvulus, herbicidal effect scored visually (Polygonum convolvulus [12]) | Amaranthus retroflexus, herbicidal activity rated visually (Amaranthus retroflexus [13]) | Matricaria inodora, herbicidal activity rated visually (Matricaria inodora [14]) | Alopecurus myosuroides, herbicidal activity rated visually (Alopecurus myosuroides [15]) | Lolium rigidum, herbicidal effect scored visually (Lolium rigidum) | other results
CCCc1nsc(N2C(=O)C(C)=C(C)C2O)n1 (centres unmarked) [I.2-4, 3,4-Dimethyl-5-hydroxy-1-[3-(n-propyl)-1,2,4-thiadiazol-5-yl)-1,5-dihydro-2H-pyrrol-2-one] | 80% | 80% | 90% | 100% | 90% | > 90% | 100% | 100% | 80% | 100% | 100% | 90% | 100% |  |  |  |  | Hordeum murinum, herbicidal activity rated visually (Hordeum murinum): 80%
CC1=C(Cl)C(=O)N(c2nc(C3CC3)ns2)C1O (centres unmarked) [I.3-11, 3-Chloro-4-methyl-5-hydroxy-1-(3-cyclopropyl-1,2,4-thiadiazol-5-yl)-1,5-dihydro-2H-pyrrol-2-one] | 100% | 100% | 100% |  | 100% | > 90% | 100% | 100% | 80% | 90% | 100% | 100% | 80% | 100% | 90% | 80% | 80% | Veronica persica, herbicidal activity rated visually (Veronica persica [16]; 1280 g/ha): 80%; Pharbitis purpurea, herbicidal effect scored visually (Pharbitis purpurea [17]): 100%
CN1CC(O)N(c2ncns2)C1=O (centres unmarked) [I.13-1, 4-Hydroxy-1-methyl-3-[1,2,4-thiadiazol-5-yl]-imidazolidin-2-one] | 90% | 100% | 100% | 80% | 90% | 50 to 70% | 100% | 100% |  | 80% |  |  |  | 100% |  | 80% |  | Veronica persica, herbicidal activity rated visually (Veronica persica [16]; 320 g/ha): 80%; Polygonum convolvulus, herbicidal activity rated visually (Polygonum convolvulus [18]): 100%; Amaranthus retroflexus, herbicidal effect scored visually (Amaranthus retroflexus [19]; 320 g/ha): 100%; pest or weed control at 320 g/ha (Matricaria inodora [10]; 320 g/ha): 90%; Veronica persica, herbicidal effect scored visually (Veronica persica [20]): 90%
COC(=O)OC1C(C)=C(C)C(=O)N1c1nc(C2CC2)ns1 (centres unmarked) [I.17-11, 3,4-Dimethyl-5-methoxycarbonyloxy-1-[3-(cyclopropyl)-1,2,4-thiadiazol-5-yl]-1,5-dihydro-2H-pyrrol-2-one] | 100% |  | 100% | 100% |  |  | 100% |  | 100% | 100% | 100% |  |  | 100% | 100% |  | 90% | Echinochloa crus-galli, herbicidal activity rated visually (Echinochloa crus-galli [21]): 100%; Amaranthus retroflexus, herbicidal effect scored visually (Amaranthus retroflexus [19]; 1280 g/ha): 100%; Poa annua, herbicidal effect scored visually (Poa annua): 100%; Echinochloa crus-galli, herbicidal effect scored visually (Echinochloa crus-galli [22]): 100%

— US20200095241A1, “SUBSTITUTED 1,2,4-THIADIAZOLYLPYRROLONES AND 1,2,4-THIADIAZOLYLHYDANTOINS AND SALTS THEREOF AND USE THEREOF AS HERBICIDES” (Bayer CropScience Aktiengesellschaft, priority 2016, published 2020)
